According to publication PMC9275698, “Morindone from Morinda citrifolia as a potential antiproliferative agent against colorectal cancer cell lines” (PLoS ONE, 2022):
Where a name gives a salt, the structure may show the parent alone.

Experiments:
HCT116 cells = assay: MTT cell cytotoxicity assay, HCT116; format: cell-based, human; settings: for IC50: MTT, 72 hours, mean ± SD; for Selectivity index (SI) HCT116: IC50 in normal cells (CCD841 CoN) / IC50 in HCT116
Experimental: (§1) Three human colorectal cancer cell lines: HT29 cells (colorectal adenocarcinoma with p53 and APC mutation), LS174T cells (colorectal adenocarcinoma with KRAS mutation) and HCT116 cells (colorectal carcinoma with KRAS mutation) as well as normal colon, CCD841 CoN cells were obtained from American Type Cell Culture (Manassas, VA, USA). All cell lines were cultured in an incubator under the condition of 37°C temperature, humidified 5% CO2 air atmosphere. Cells were maintained in Dulbecco’s Modified Eagle Medium (DMEM) (Corning, NY, USA), supplemented with 10% Fetal Bovine Serum (FBS) (Sigma-Aldrich, St Louis, MO, USA), 25mM HEPES (Sangon Biotech, Shanghai, China) and 1% Penicillin/Streptomycin (Merck, Germany).
(§2) HCT116 wells were seeded at 7,500 cells/well while other cells were seeded at 30,000 cells/well in 96 well plates and allowed for 24 hours incubation. Cells were then treated with anthraquinone compounds at series of 2-fold dilution concentrations (50μM, 25μM, 12.5μM, 6.25μM, 3.12μM, 1.56μM, 0.78μM, 0.39μM) for 72 hours. 5-fluorouracil and DOX were used as positive controls in the treatment. Cell cytotoxicity was measured using the MTT Cell Count kit according to the manufacturer’s protocol. Assay was performed in triplicates and repeated in three individual experiments. The absorbance (A) was measured with microplate reader at 570nm wavelength and normalized to control. The half-maximal inhibitory concentration (IC50) value was determined using GraphPad Prism 8 software (GraphPad Software, Inc., CA, USA). Cell viability was calculated as follows: […]

LS174T cells = assay: MTT cell cytotoxicity assay, LS174T; format: cell-based, human; settings: for IC50: Homo sapiens, LS174T, MTT, 72 hours, mean ± SD; for Selectivity index (SI) LS174T: IC50 in normal cells (CCD841 CoN) / IC50 in LS174T
Experimental: as §1, §2

HT29 cells = assay: MTT cell cytotoxicity assay, HT29; format: cell-based, human; settings: for IC50: Homo sapiens, HT-29, MTT, 72 hours, mean ± SD; for Selectivity index (SI) HT29: IC50 in normal cells (CCD841 CoN) / IC50 in HT29
Experimental: as §1, §2

CCD841 CoN cells = assay: MTT cell cytotoxicity assay, normal colon cells; format: cell-based; settings: Homo sapiens, CCD-841CoN, 72 hours
Experimental: as §1, §2

C. lipolytica = tested on: C. lipolytica; parameters: method as in PMID 21214480; settings: cited from earlier work
[1] = tested on: oxacillin-resistant Staphylococcus aureus; parameters: method as in PMID 20521552; settings: cited from earlier work
[2] = tested on: MCF-7 cells (breast cancer); settings: cited from earlier work
[3] = tested on: HCT116 cells (colorectal cancer); settings: cited from earlier work
[4] = tested on: HepG2 cells (hepatocellular carcinoma); settings: cited from earlier work

SMILES | IC50 (HCT116 cells; Homo sapiens, HCT-116, 72 h) [µM] | Selectivity index (SI) HCT116 (HCT116 cells) | IC50 (HCT116 cells) [µM] | IC50 (LS174T cells) [µM] | Selectivity index (SI) LS174T (LS174T cells) | IC50 (HT29 cells) [µM] | Selectivity index (SI) HT29 (HT29 cells) | IC50 (CCD841 CoN cells) [µM] | melting point [°C] | IC50 (HCT116 cells; listed as morindone) [µM] | Antimicrobial activity against C. lipolytica (C. lipolytica) | Antimicrobial activity against oxacillin-resistant Staphylococcus aureus [1] | IC50 (HCT116 cells; listed as damnacanthal) [µM] | Anticancer and antitumor activities towards MCF-7 cells [2] | Anticancer and antitumor activities towards HCT116 cells [3] | Anticancer and antitumor activities towards HepG2 cells [4]
COc1c(O)cc2c(c1O)C(=O)c1ccc(C)c(O)c1C2=O [1,3,5-trihydoxy-2-methoxy-6-methyl anthraquinone] | < 25 | 4.55 | 24.57 ± 0.07 | > 50 | 0.97 | > 50 | 0.03 | > 50 | 235 to 239 |  |  |  |  |  |  | 
Cc1ccc2c(c1O)C(=O)c1ccc(O)c(O)c1C2=O [Morindone (4), Morindone] |  | 76.25 | 10.7 ± 0.04 | 20.45 ± 0.03 | 39.89 | 19.2 ± 0.05 | 42.49 | > 50 |  | < 25 | strong antimicrobial activity | strong antimicrobial activity |  |  |  | 
Cc1c(O)cc2c(c1O)C(=O)c1ccccc1C2=O [Rubiadin (6), Rubiadin] | > 50 |  |  | > 50 |  | > 50 |  | > 50 |  |  |  |  |  |  |  | 
COCc1c(O)cc2c(c1O)C(=O)c1ccccc1C2=O [Lucidin-ω-methylether (8), Lucidin-ω-methylether] | < 25 |  | 14.88 ± 0.01 | > 50 |  | > 50 |  | > 50 | 170 to 173 |  |  |  |  |  |  | 
O=c1[nH]cc(F)c(=O)[nH]1 [5-Fluorouracil, 5-fluorouracil, reference compound] | 5 ± 0.04 |  |  | 4.16 ± 0.02 |  | 0.2 ± 0.05 |  |  |  |  |  |  |  |  |  | 
Cc1ccc2c(c1O)C(=O)c1ccc(O)cc1C2=O [Sorendidiol (5), Sorendidiol] | > 50 | 7.10 |  | > 50 |  | 27.17 ± 0.07 | 29.19 | > 50 |  |  |  |  |  |  |  | 
COc1c(CO)c(O)cc2c1C(=O)c1ccccc1C2=O [Damnacanthol (7), Damnacanthol] | < 25 |  | 18.47 ± 0.02 | > 50 | 0.59 | > 50 | 1.46 | > 50 | 156 to 158 |  |  |  |  |  |  | 
COc1c(C=O)c(O)cc2c1C(=O)c1ccccc1C2=O [Damnacanthal (2), Damnacanthal] |  | 951.60 | 0.74 ± 0.06 | > 50 | 0.28 | 28.17 ± 0.08 | 24.85 | > 50 |  |  |  |  | < 25 | Good anticancer and antitumor activities | Good anticancer and antitumor activities | Good anticancer and antitumor activities
COc1cccc2c1C(=O)c1c(O)c3c(c(O)c1C2=O)C[C@@](O)(C(=O)CO)C[C@@H]3O[C@H]1C[C@H](N)[C@H](O)[C@H](C)O1 [Doxorubicin hydrochloride, doxorubicin hydrochloride, reference compound] | 0.17 ± 0.04 |  |  | 2.27 ± 0.04 |  | 0.3 ± 0.06 |  |  |  |  |  |  |  |  |  | 
O=Cc1c(O)cc2c(c1O)C(=O)c1ccccc1C2=O [Nordamnacanthal (1), Nordamnacanthal] | > 50 | 0.97 |  | > 50 | 4.79 | > 50 | 0.42 | > 50 | 219 to 222 |  |  |  |  |  |  | 
